Laboratory results: ChEMBL document CHEMBL1144307, “Design of selective phenylglycine amide tissue factor/factor VIIa inhibitors” (Bioorg Med Chem Lett, 2005)

Tests used:
[1] = molecular target: Coagulation factor X (Homo sapiens, UniProt P00742); assay: The value of binding constant measured against coagulation factor X (factor Xa)
[2] = molecular target: Prothrombin (Homo sapiens, UniProt P00734); assay: The value of binding constant measured against human Thrombin
[3] = molecular target: Serine protease 1 (Homo sapiens, UniProt P07477); assay: The value of binding constant measured against human trypsin
Sequence of Serine protease 1 (P07477 whole entry): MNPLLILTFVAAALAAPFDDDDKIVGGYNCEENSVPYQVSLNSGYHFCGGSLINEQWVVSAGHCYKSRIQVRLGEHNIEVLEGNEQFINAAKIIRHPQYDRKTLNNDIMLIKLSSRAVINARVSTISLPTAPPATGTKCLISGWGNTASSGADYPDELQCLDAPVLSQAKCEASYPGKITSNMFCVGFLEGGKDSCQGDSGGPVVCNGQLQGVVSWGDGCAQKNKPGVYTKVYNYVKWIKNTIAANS

[4] = molecular target: T1, Coagulation factor VII (Homo sapiens, UniProt P08709); assay: The value of binding constant measured against coagulation factor VII
T1 sequence (P08709 whole entry): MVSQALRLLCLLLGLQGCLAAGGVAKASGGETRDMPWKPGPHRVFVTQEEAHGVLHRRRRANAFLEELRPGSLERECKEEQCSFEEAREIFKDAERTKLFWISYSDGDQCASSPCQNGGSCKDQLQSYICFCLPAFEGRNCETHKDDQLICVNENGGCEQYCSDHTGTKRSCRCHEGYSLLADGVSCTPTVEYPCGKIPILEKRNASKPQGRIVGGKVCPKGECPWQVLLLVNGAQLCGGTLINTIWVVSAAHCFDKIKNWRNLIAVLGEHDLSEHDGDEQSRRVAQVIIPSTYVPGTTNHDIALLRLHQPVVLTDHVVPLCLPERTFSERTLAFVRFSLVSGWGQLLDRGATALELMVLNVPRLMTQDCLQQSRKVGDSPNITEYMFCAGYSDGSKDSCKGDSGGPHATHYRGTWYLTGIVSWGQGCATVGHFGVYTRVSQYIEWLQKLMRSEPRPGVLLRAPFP

Sequence of Coagulation factor X (P00742 41-179 limits assumed): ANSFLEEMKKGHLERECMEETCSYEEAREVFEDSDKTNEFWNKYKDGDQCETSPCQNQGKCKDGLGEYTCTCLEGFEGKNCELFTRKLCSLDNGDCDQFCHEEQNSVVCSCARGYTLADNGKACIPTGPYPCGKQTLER
Sequence of Coagulation factor X (P00742 235-488 limits assumed): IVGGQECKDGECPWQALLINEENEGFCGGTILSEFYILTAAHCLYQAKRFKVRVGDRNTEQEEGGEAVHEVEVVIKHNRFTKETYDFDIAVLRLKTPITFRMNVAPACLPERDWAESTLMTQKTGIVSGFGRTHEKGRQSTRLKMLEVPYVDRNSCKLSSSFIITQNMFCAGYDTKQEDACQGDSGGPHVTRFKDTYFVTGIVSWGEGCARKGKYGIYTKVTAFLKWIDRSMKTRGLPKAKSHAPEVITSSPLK

| Ki [1] | Ki [2] | Ki [3] | Ki [4] | SMILES |
| --- | --- | --- | --- | --- |
| 8 µM | 0.035 µM | 0.04 µM | – | COc1cc([C@@H](Nc2ccc(C(=N)N)cc2)C(=O)N[C@H](C(=O)O)c2ccccc2)ccc1OCc1ccccc1 |
| 5.3 µM | 0.043 µM | 0.21 µM | 0.22 µM | COc1cc(C(Nc2ccc(C(=N)N)cc2)C(=O)NCc2ccccc2)ccc1OCc1ccccc1 (stereo unspecified) |
| 30 µM | 0.46 µM | 1.7 µM | 0.35 µM | COc1ccc(C(Nc2ccc(C(=N)N)cc2)C(=O)NCc2ccccc2)cc1OC (stereo unspecified) |
| 4.5 µM | 0.048 µM | 1.1 µM | 0.13 µM | CCOc1cc(C(Nc2ccc(C(=N)N)cc2)C(=O)NCc2ccccc2)ccc1OCc1ccccc1 (stereo unspecified) |
| 19 µM | 0.57 µM | 2 µM | 0.04 µM | CCOc1ccc(C(Nc2ccc(C(=N)N)cc2)C(=O)NCc2ccccc2)cc1OCC (stereo unspecified) |

Continued, compound first:

| SMILES | Ki [1] | Ki [2] | Ki [3] | Ki [4] |
| --- | --- | --- | --- | --- |
| COc1cc([C@@H](Nc2ccc(C(=N)N)cc2)C(=O)N[C@H](C(=O)O)c2ccccc2)c(S(=O)(=O)c2ccccc2)cc1OCc1ccccc1 | 12.4 µM | 0.54 µM | 0.05 µM | – |
| COc1cc(CNc2ccc(C(=N)N)cc2)ccc1OCc1ccccc1 | 1.2 µM | 0.27 µM | 0.58 µM | 1 µM |
| COc1cc(C(Nc2ccc(C(=N)N)cc2)C(=O)NCc2ccccc2)c(S(=O)(=O)c2ccccc2)cc1OCc1ccccc1 (stereo unspecified) | > 74 µM | 1.7 µM | 0.42 µM | 0.16 µM |
| COc1cc(CNc2ccc(C(=N)N)cc2)c(NS(C)(=O)=O)cc1OCc1ccccc1 | 26 µM | 1.4 µM | 0.4 µM | 0.38 µM |
| CCOc1ccc(CNc2ccc(C(=N)N)cc2)cc1OCC | 39 µM | 4.5 µM | 2 µM | – |
| COc1cc([C@@H](Nc2ccc(C(=N)N)cc2)C(=O)N[C@H](C(=O)O)c2ccccc2)c(C(=O)Cc2ccccc2)cc1OCc1ccccc1 | 19 µM | 6.4 µM | 0.08 µM | 0.007 µM |
